Assay results as given in publication PMC7801313, “Effect of lurbinectedin on the QTc interval in patients with advanced solid tumors: an exposure–response analysis” (Cancer Chemotherapy and Pharmacology, 2020).
“And” between values parts separate entries of the source, which are not always exact repeats. Equal entries are not always repeated.

Tests used:
[1] = system: patients with advanced solid tumors; assay: QT evaluation study, by time point ECG analysis; format: in vivo, human
Procedure: This was a QT evaluation study (EudraCT No. 2015-000206-18; ClinicalTrials.gov: NCT02451007) performed at a subset of sites participating in a multicenter, open-label, exploratory, phase II basket clinical trial (EudraCT No: 2014-003773-42; ClinicaTrials.gov: NCT02454972) conducted in patients with selected advanced solid tumors. The schedule used in this QT evaluation study was that evaluated in the basket trial: lurbinectedin 3.2 mg/m^2 given as a 1-h i.v. infusion q3wk.
A screening ECG was collected between day -10 and day -2 before the first lurbinectedin infusion (day 1 of cycle 1) and transmitted to the central ECG laboratory to confirm the patient’s eligibility.
On day 1 of cycle 1, two baseline triplicate ECGs (three 10-s digital ECGs in close succession) were collected: one before administration of prophylactic medication or pre-dose 1, and the other after antiemetic prophylactic medication (palonosetron 0.25 mg i.v.) and before the start of the lurbinectedin infusion or pre-dose 2 (also on cycle 2).
In cycle 1 and cycle 2, the following triplicate ECGs were collected 5–10 min before their time-matched PK time points: 5 min before end of the lurbinectedin infusion (EOI), 30 min, 1, 3, 24, 72 (only on cycle 1), and 168 h after EOI.
A 12-lead automated digital ECG recorder [Mortara Instrument (Milwaukee, WI, USA) ELI-150 ECG 12-lead digital recorder] was provided by a third-party central ECG laboratory (eResearchTechnology, Inc., Philadelphia, PA, USA). Analysis and reporting of ECG data were performed by a limited number of skilled readers who were blinded to treatment time point. ECG review of a particular patient was performed by a single reader. Interval duration measurements were collected using computer-assisted caliper placements on three consecutive beats. A cardiologist then verified the interval durations and performed the morphology analysis, noting any T-U wave complex compatible with an effect on cardiac repolarization. The ECG analysis was conducted in Lead II or in Lead V5 if Lead II was not analyzable. If Lead V5 was not analyzable, then Lead V2 was used, and followed by the most appropriate lead if necessary. The mean of triplicate ECG measures at each time point for each patient was used for analyses.
Fridericia’s formula [6] is currently considered the most accurate method for correcting the effect of HR on QT interval [7], and was used as the main method for HR correction for QT (QTcF). Nevertheless, graphical inspection of QTcF and QT corrected by Bazett’s formula (QTcB) versus RR interval plots and statistical comparison of resulting squared linear regression slopes (R^2) was performed.
The primary endpoint was the change in QTc corrected by the Fridericia’s formula (ΔQTcF) between each scheduled post-baseline ECG time point and baseline at cycle 1. A patient was considered evaluable for the primary endpoint if he/she had baseline and one or more post-baseline ECG assessments.
Secondary endpoints were the ΔQTcF/lurbinectedin plasma concentration relationship, and change in other ECG parameters (i.e., HR, QRS, and PR).
The primary comparison was ΔQTcF at each ECG time point. A non-inferiority criterion of 20 ms was used to establish the absence of post-baseline QTc prolongation when compared to baseline. An analysis of variance model with mixed effects was fitted, with ΔQTc data as the dependent variable and ECG time point as the fixed effects, and patient as random effect.
Using the estimated least square means (LSM) and intra-patient standard deviation (Std) obtained from this model, a two-sided 90% confidence interval (CI) was calculated for each LSM ΔQTc. Non-inferiority was to be concluded if the upper bound (UB) of the one-sided 95% CI fell below 20 ms at each ECG time point.

[2] = system: patients with advanced solid tumors; assay: cardiac adverse events in the QT evaluation study; format: in vivo, human
Procedure: Cardiac adverse events (AEs) observed in the period of this QT evaluation study were evaluated and graded according to the National Cancer Institute Common Terminology Criteria for Adverse Events (NCI-CTCAE), v.4 and coded using the Medical Dictionary for Regulatory Activities (MedDRA) v.16.0. Laboratory results of particular relevance (i.e., changes in albumin, calcium, potassium, or magnesium) were graded according to the NCI-CTCAE v.4.

patients [3] = assay: clinical toxicity of lurbinectedin as a single agent; format: in vivo, human; conditions: to date
oncogenic transcription = system: oncogenic transcription; design: method as in PMID 20977459; conditions: cited from earlier work
telemetered dogs = system: telemetered dogs; design: method as in data on file; conditions: single i.v. bolus at maximum tolerated dose, ref data on file; cited from earlier work
cynomolgus monkeys = system: cynomolgus monkeys; design: method as in data on file; conditions: single i.v. bolus at maximum tolerated dose, ref data on file; cited from earlier work
patients [4] = system: patients; design: method as in PMID 24563480; conditions: cited from earlier work
[5] = Cycle 1 Day 1, 30 min after end of infusion
[6] = Cycle 1 Day 1, 1 h after end of infusion
[7] = Cycle 1 Day 1, 3 h after end of infusion
[8] = Cycle 1 Day 2, 24 h after end of infusion
[9] = Cycle 1 Day 4, 72 h after end of infusion
[10] = Cycle 1 Day 8, 168 h after end of infusion
[11] = Cycle 2 Day 1, 5 min before end of infusion
[12] = Cycle 2 Day 1, 5 min before start of infusion
[13] = Cycle 2 Day 1, 30 min after end of infusion
[14] = Cycle 2 Day 1, 1 h after end of infusion
[15] = Cycle 2 Day 8, 168 h after end of infusion
[16] = all time points other than 3 h after end of cycle 2 infusion

Question: For COc1ccc2[nH]c3c(c2c1)CCN[C@]31CS[C@@H]2c3c(OC(C)=O)c(C)c4c(c3[C@H](COC1=O)N1[C@@H]2[C@H]2c3c(cc(C)c(OC)c3O)C[C@@H]([C@@H]1O)N2C)OCO4 [lurbinectedin, Lurbinectedin], which “effect on cardiac repolarization” value ([1]; 3.2 mg/m^2 1-h i.v. q3wk) is on record?
Answer: Its value is “not associated with a clinically relevant effect on cardiac repolarization”.

Question: And the “values above reference limits QTcF > 480 ms and ΔQTcF > 60 ms” value ([1]; 39 evaluable patients)?
Answer: Its value is “No single value was above the reference limit values of concern”.

Question: What about the “ΔQTcF, mean (Stdv)” value ([1]; Cycle 1, 0.92 h after start of infusion) of the same molecule?
Answer: The value was 3.33 (8.46) ms.

Question: And the “ΔQTcF, mean (Stdv)” value ([1]; Cycle 1, 1.5 h after start of infusion)?
Answer: The value was 1.76 (8.25) ms.

Question: What about the “ΔQTcF, mean (Stdv)” value ([1]; Cycle 1, 2 h after start of infusion) of the same molecule?
Answer: The value was 1.84 (10.88) ms.

Question: And the “highest mean change from baseline in HR (± Std)” value ([1]; Cycle 1, 3 h after end of infusion)?
Answer: Its value is 16.7 (± 11.0) bpm and 16.7 bpm.

Question: What about the “ΔQTcF, mean (Stdv)” value ([1]; Cycle 1, 4 h after start of infusion) of the same molecule?
Answer: Its value is 1.33 (10.39) ms.

Question: And the “ΔQTcF UB90%CI” value ([1]; Cycle 1 Day 1, 5 min before end of infusion)?
Answer: Its value is 5.51 ms.

Question: And the “ΔQTcF LSmean” value ([1]; Cycle 1 Day 1, 5 min before end of infusion, 3.2 mg/m^2 1-h i.v.)?
Answer: The value was 3.32 ms.

Question: What about the “ΔQTcF LSmean” value [1, 5] of the same molecule?
Answer: Its value is 1.76 ms.

Question: And the “ΔQTcF UB90%CI” value [1, 5]?
Answer: The value was 3.93 ms.

Question: And the “ΔQTcF LSmean” value [1, 6]?
Answer: The value was 1.84 ms.

Question: And the “ΔQTcF UB90%CI” value [1, 6]?
Answer: Its value is 4.69 ms.

Question: And the “ΔQTcF LSmean” value [1, 7]?
Answer: The value was 1.32 ms.

Question: And the “ΔQTcF UB90%CI” value [1, 7]?
Answer: The value was 4.05 ms.

Question: And the “ΔQTcF LSmean” value [1, 8]?
Answer: The value was -8.24 ms.

Question: And the “ΔQTcF UB90%CI” value [1, 8]?
Answer: The value was -5.26 ms.

Question: What about the “ΔQTcF LSmean” value [1, 9] of the same molecule?
Answer: Its value is -12.38 ms.

Question: What about the “ΔQTcF UB90%CI” value [1, 9] of the same molecule?
Answer: Its value is -9.39 ms.

Question: And the “ΔQTcF LSmean” value [1, 10]?
Answer: The value was -5.2 ms.

Question: What about the “ΔQTcF UB90%CI” value [1, 10] of the same molecule?
Answer: Its value is -2.41 ms.

Question: What about the “ΔQTcF, mean (Stdv)” value ([1]; Cycle 2, 0.92 h after start of infusion) of the same molecule?
Answer: The value was 1.54 ms and 1.54 (12.36) ms.

Question: And the “ΔQTcF, mean (Stdv)” value ([1]; Cycle 2, 1.5 h after start of infusion)?
Answer: Its value is 1.99 (12.06) ms.

Question: What about the “ΔQTcF, mean (Stdv)” value ([1]; Cycle 2, 2 h after start of infusion) of the same molecule?
Answer: Its value is 1.92 (13.65) ms.

Question: What about the “ΔQTcF, mean (Stdv)” value ([1]; Cycle 2, 4 h after start of infusion (largest mean)) of the same molecule?
Answer: The value was 4.69 ms and 4.69 (15.28) ms.

Question: And the “ΔQTcF LSmean” value [1, 11]?
Answer: The value was 2.25 ms.

Question: And the “ΔQTcF UB90%CI” value [1, 11]?
Answer: Its value is 5.68 ms.

Question: And the “ΔQTcF LSmean” value [1, 12]?
Answer: Its value is -0.46 ms.

Question: And the “ΔQTcF UB90%CI” value [1, 12]?
Answer: Its value is 2.35 ms.

Question: And the “ΔQTcF LSmean” value [1, 13]?
Answer: The value was 2.32 ms.

Question: What about the “ΔQTcF UB90%CI” value [1, 13] of the same molecule?
Answer: The value was 5.66 ms.

Question: What about the “ΔQTcF LSmean” value [1, 14] of the same molecule?
Answer: Its value is 2.73 ms.

Question: And the “ΔQTcF UB90%CI” value [1, 14]?
Answer: The value was 6.54 ms.

Question: And the “ΔQTcF UB90%CI” value ([1]; Cycle 2 Day 1, 3 h after end of infusion (largest UB))?
Answer: Its value is 9.6 ms and 9.60 ms.

Question: And the “ΔQTcF LSmean” value ([1]; Cycle 2 Day 1, 3 h after end of infusion (maximum))?
Answer: Its value is 5.39 ms.

Question: What about the “ΔQTcF LSmean” value [1, 15] of the same molecule?
Answer: Its value is -4.22 ms.

Question: And the “ΔQTcF UB90%CI” value [1, 15]?
Answer: Its value is -1.08 ms.

Question: And the “variation between lowest and largest mean change from baseline of PR interval” value ([1]; all time points and cycles)?
Answer: Its value is 7.8 ms.

Question: And the “variation between lowest and largest mean change from baseline of QRS duration” value ([1]; all time points and cycles)?
Answer: The value was 2.5 ms.

Question: What about the “LSM ΔQTcF at other time points” value [1, 16] of the same molecule?
Answer: Its value is at most 3.3 ms.

Question: What about the “UB of the 90% CI of ΔQTcF at other time points” value [1, 16] of the same molecule?
Answer: Its value is under 6.6 ms.

Question: And the “Umax (time when the largest mean ΔQTcF is reached)” value ([1]; cycle 1)?
Answer: The value was 0.92 h.

Question: And the “patients with ΔHR > 25%” value ([1]; cycle 1)?
Answer: Its value is 44%.

Question: What about the “difference between Umax and Tmax” value ([1]; cycle 2) of the same molecule?
Answer: Its value is 3.08 h.

Question: And the “patients with ΔHR > 25%” value ([1]; cycle 2)?
Answer: Its value is 49%.

Question: What about the “highest mean change from baseline in HR (± Std)” value ([1]; cycle 2, 3 h after end of infusion) of the same molecule?
Answer: Its value is 17.5 (± 11.7) bpm and 17.5 bpm.

Question: And the “effects on atrioventricular conduction or depolarization (mean changes in PR and QRS intervals)” value ([1]; in vivo)?
Answer: The value was “No significant effects”.

Question: What about the cardiac safety findings ([2]; QT evaluation study period) of the same molecule?
Answer: The cardiac safety findings was “No relevant cardiac safety findings”.

Question: What about the “adverse events suggestive of proarrhythmic potential” value ([2]; in vivo) of the same molecule?
Answer: Its value is “No adverse events suggestive of proarrythmic potential”.

Question: What about the cardiac toxicity concerns (patients [3]) of the same molecule?
Answer: Its cardiac toxicity concerns is “no cardiac toxicity concerns”.

Question: What about the in vitro activity (oncogenic transcription) of the same molecule?
Answer: Its in vitro activity is “low nanomolar range”.

Question: What about the cardiovascular changes (telemetered dogs) of the same molecule?
Answer: The cardiovascular changes was “mild decreases in blood pressure and increased heart rate”.

Question: What about the “effects on lead II ECG variables (PR, QT, QTcF, QTcV, QRS), ECG gross morphology, cardiac rhythm” value (telemetered dogs) of the same molecule?
Answer: Its value is “No effects were observed”.

Question: And the cardiovascular changes (cynomolgus monkeys)?
Answer: The cardiovascular changes was “mild decreases in blood pressure and increased heart rate”.

Question: And the “effects on lead II ECG variables (PR, QT, QTcF, QTcV, QRS), ECG gross morphology, cardiac rhythm” value (cynomolgus monkeys)?
Answer: The value was “No effects were observed”.

Question: And the “most common limiting toxicity” value (patients [4])?
Answer: Its value is “myelosuppression, particularly neutropenia”.
